# Patent EP3898610B1, “NOVEL AZA-HEXAPHENE ANTIBIOTIC COMPOUNDS” (Fondazione Istituto Insubrico di Ricerca per la Vita, priority 2018, dated 2020)
# Like-named read-outs stand apart in the source and are kept apart here.
# Key:
# [1] = test system: L4187 E. faecium VanA - Lnz R - Cpx R; assay: microbe, parasite or virus in culture; assay type: cell-based; settings: Enterococcus faecium
# Protocol: (§1) Antibacterial activity. […] Each bacterial strain was inoculated with 2-5×10^5 CFU/ml, Candida albicans with 10^4 CFU/ml. Cultures were incubated at 35°C in air. After 18-24 hours visual readings were performed and MICs (Minimal Inhibitory Concentrations) determined. The effect of 30% bovine serum was determined under the same experimental conditions. The strains used were clinical isolates or strains from American Type Culture Collection (ATCC).
# [2] = test system: L49 S. pyogenes C203; assay: MIC, broth microdilution (CLSI); assay type: cell-based; settings: Streptococcus pyogenes
# Protocol: as §1
# [3] = test system: L3294 M. catarrhalis; assay: MIC, broth microdilution (CLSI); assay type: cell-based; settings: Moraxella catarrhalis
# Protocol: as §1
# [4] = test system: L1577 S. epidermidis; assay: MIC, broth microdilution (CLSI); assay type: cell-based; settings: Staphylococcus epidermidis
# Protocol: as §1
# [5] = test system: L1400 S. aureus HA-MRSA; assay: MIC, broth microdilution (CLSI); assay type: cell-based; settings: Staphylococcus aureus
# Protocol: as §1
# [6] = test system: L4061 S. aureus MRSA - GISA; assay: MIC, broth microdilution (CLSI); assay type: cell-based; settings: Staphylococcus aureus
# Protocol: as §1
# [7] = test system: L47 E. coli; assay: MIC, broth microdilution (CLSI); assay type: cell-based; settings: Escherichia coli
# Protocol: as §1
# [8] = test system: L1730 S. haemolyticus; assay: MIC, broth microdilution (CLSI); assay type: cell-based
# Protocol: as §1
# [9] = test system: L44 S. pneumoniae; assay: MIC, broth microdilution (CLSI); assay type: cell-based; settings: Streptococcus pneumoniae
# Protocol: as §1
# [10] = test system: L568 E. faecium; assay: MIC, broth microdilution (CLSI); assay type: cell-based; settings: Enterococcus faecium
# Protocol: as §1
# [11] = test system: VA8101 S. agalactiae (Group B); assay: MIC, broth microdilution (CLSI); assay type: cell-based; settings: Streptococcus agalactiae
# Protocol: as §1
# [12] = test system: L1729 S. haemolyticus MDR; assay: MIC, broth microdilution (CLSI); assay type: cell-based; settings: Staphylococcus haemolyticus
# Protocol: as §1
# [13] = test system: L819 S. aureus Smith; assay: MIC, broth microdilution (CLSI); assay type: cell-based; settings: Staphylococcus aureus
# Protocol: as §1
# [14] = test system: VA80201 S. aureus CA-MRSA; assay: MIC, broth microdilution (CLSI); assay type: cell-based; settings: Staphylococcus aureus
# Protocol: as §1
# [15] = test system: L569 E. faecium VanA; assay: MIC, broth microdilution (CLSI); assay type: cell-based
# Protocol: as §1
# [16] = test system: L560 E. faecalis VanA; assay: MIC, broth microdilution (CLSI); assay type: cell-based; settings: Enterococcus faecalis
# Protocol: as §1
# [17] = test system: L559 E. faecalis; assay: MIC, broth microdilution (CLSI); assay type: cell-based; settings: Enterococcus faecalis
# Protocol: as §1
# [18] = test system: L100 S. aureus ATCC6538P; assay: MIC, broth microdilution (CLSI); assay type: cell-based; settings: Staphylococcus aureus
# Protocol: as §1
# [19] = test system: L145 C. albicans; assay: MIC, broth microdilution (CLSI); assay type: cell-based; settings: Candida albicans
# Protocol: (§2) Antibacterial activity. The antimicrobial activity of the antibiotic 103/33-F710 was determined by the broth microdilution method according to the procedures published by the Clinical and Laboratory Standards Institute (CLSI), formerly the National Committee for Clinical Laboratory Standards (NCCLS) (document M07-A9). Microorganisms were grown in either cation-adjusted Mueller Hinton Broth (Staphylococci, Enterococci, Moraxella catarrhalis, Escherichia coli), Todd Hewitt medium (Streptococci) or RPMI 1640 medium for Candida albicans on 96-well microtiter plates. Each bacterial strain was inoculated with 2-5×10^5 CFU/ml, Candida albicans with 10^4 CFU/ml. Cultures were incubated at 35°C in air. After 18-24 hours visual readings were performed and MICs (Minimal Inhibitory Concentrations) determined. The effect of 30% bovine serum was determined under the same experimental conditions. The strains used were clinical isolates or strains from American Type Culture Collection (ATCC). The antibiotic 103/33-F710 was dissolved in DMSO to obtain a 1000 µg/ml stock solution, and subsequently diluted in water to obtain working solution. Table 5: Antimicrobial activity reported as MIC (µg/ml) of ID103/33-F710
# Antibacterial activity. The antimicrobial activity of the antibiotic 103/33-F696 was determined by the broth microdilution method according to the procedures disclosed in Example 7. Table 6: Antimicrobial activity reported as MIC (µg/ml) of compound 2 (103/33-F696)
# Antibacterial activity. The antimicrobial activity of the antibiotic 103/33-F712 was determined by the broth microdilution method according to the procedures disclosed in Example 7. Table 7: Antimicrobial activity reported as MIC (µg/ml) of ID103/33-F712
# [20] = test system: VA801801 L. monocytogenes; assay: MIC, broth microdilution (CLSI); assay type: cell-based; settings: Listeria monocytogenes, 35°C, 18-24 hours
# Protocol: as §2
# [21] = test system: VA827901 B. cereus; assay: MIC, broth microdilution (CLSI); assay type: cell-based; settings: Bacillus cereus, 35°C, 18-24 hours
# Protocol: as §2
# [22] = test system: VA645601 B. clausii; assay: MIC, broth microdilution (CLSI); assay type: cell-based; settings: Shouchella clausii, 35°C, 18-24 hours
# Protocol: as §2
# [23] = test system: BJ5TA - ATCC CRL-4401 normal fibroblast; assay: Cytotoxicity against human cells; assay type: cell-based; settings: at 200 µg/ml, the highest concentration tested
# [24] = test system: human erythrocytes; assay: Hemolytic activity; assay type: cell-based
# [25] = test system: HepG2 cells from hepatocarcinoma; assay: Cytotoxicity against human cells; assay type: cell-based; settings: at 200 µg/ml, the highest concentration tested
# [26] = Solubility; assay type: physicochemical
# Protocol: (§3) Solubility of compound 1 (103/33 F-710) was poor in most low to medium- polarity organic solvents, as well as in water from acidic to neutral pH; it was more soluble at basic pH and stable up to pH 8-9, while in alcohols it ranged between 5-10 mg/ml. […] Some crystallizations trials were performed on compound 1 (103/33 F-710) in order to obtain suitable crystals for the X-ray structural characterization.
# [27] = test system: Hela cells from cervix adenocarcinoma; assay: Cytotoxicity against human cells; assay type: cell-based; settings: at 200 µg/ml
# [28] = test system: Staphylococcus aureus Smith 819 ATCC 19636; assay: Murine septicemia model; assay type: in vivo; settings: ATCC19636, intravenous administrations
# Source text: Effectiveness. […] This level of protection was observed after intravenous administrations.
# [29] = Stability as a function of pH; assay type: physicochemical; settings: basic pH
# Protocol: as §3
structure (smiles),measurement,setting,value
"CN[C@H](CC(C)C)C(=O)N[C@H]1C(=O)N[C@@H](CC(N)=O)C(=O)N[C@H]2C(=O)N[C@H]3C(=O)N[C@H](C(=O)N[C@H](C(=O)O)c4cc(O)cc(O)c4-c4cc3ccc4O)[C@H](O)c3ccc(c(Cl)c3)Oc3cc2cc(c3O[C@@H]2O[C@H](CO)[C@@H](O)[C@H](O)[C@H]2O[C@H]2C[C@](C)(N)[C@H](O)[C@H](C)O2)Oc2ccc(cc2Cl)[C@H]1O [Vancomycin, reference compound]",MIC,[1],> 128 µg/mL
same,MIC,[2],0.5 µg/mL
same,MIC,[3],16 µg/mL
same,MIC,[4],1 µg/mL
same,MIC,[5]; MRSA,1 µg/mL
same,MIC,[6]; MRSA,4 µg/mL
same,MIC,[7],> 128 µg/mL
same,MIC,"[8]; L1730 S. haemolyticus, cation-adjusted Mueller Hinton Broth, 35°C, 18-24 hours",0.5 µg/mL
same,MIC,"[8]; Staphylococcus haemolyticus, L1730 S. haemolyticus, cation-adjusted Mueller Hinton Broth, 35°C, 18-24 hours",1 µg/mL
same,MIC,[9],0.5 µg/mL
same,MIC,[10],2 µg/mL
same,MIC,[11],0.5 µg/mL
same,MIC,[12],2 µg/mL
same,MIC,[13],1 µg/mL
same,MIC,[14]; MRSA,1 µg/mL
same,MIC,[15]; Enterococcus faecium,> 128 µg/mL
same,MIC,[15]; L569 E. faecium VanA 30 % SB (30% bovine serum),> 128 µg/mL
same,MIC,[16],> 128 µg/mL
same,MIC,[17],0.5 µg/mL
same,MIC,[18]; ATCC6538P,1 µg/mL
"C[C@@H]1[C@H](O)[C@@H](C)/C=C/C=C/C=C/C=C/C=C/C=C/C=C/[C@H](O[C@@H]2O[C@H](C)[C@@H](O)[C@H](N)[C@@H]2O)C[C@@H]2O[C@](O)(C[C@@H](O)C[C@@H](O)[C@H](O)CC[C@@H](O)C[C@@H](O)CC(=O)O[C@H]1C)C[C@H](O)[C@H]2C(=O)O [amphotericin B, reference compound]",MIC,[19],0.5 µg/mL
"COc1c(OC)c2c(=O)c3cc(C)n(C(CC4CN(C)C(=N)N4)C(=O)O)c(=O)c3c(=O)c2c2cc3c(=O)c4cc(O)cc(O)c4c(=O)c3c(OC)c12 (stereo not drawn) [compound 1, 2-(10,12-Dihydroxy-6,7,8-trimethoxy-3-methyl-1,5,9,14,16-pentaoxo-5,9,14,16-tetrahydro-1H-2-aza-hexaphen-2-yl)-3-(2-imino-1-methyl-imidazolidin-4-yl)-propionic acid]",MIC,[20],0.06 µg/mL
same,MIC,[21],0.06 µg/mL
same,MIC,[22],0.125 µg/mL
same,toxicity against human cells,[23],no toxicity
same,MIC,"[1]; L4187 E. faecium VanA - Lnz R - Cpx R, cation-adjusted Mueller Hinton Broth, 35°C, 18-24 hours, read-out: MIC",2 µg/mL
same,hemolytic activity,[24],no hemolytic activity
same,toxicity against human cells,[25],no toxicity
same,Solubility,[26]; acetone,scarcely soluble
same,Solubility,[26]; at basic pH,more soluble
same,Solubility,[26]; dimethylformamide (DMF),soluble
same,Solubility,[26]; methanol (MeOH),scarcely soluble
same,Solubility,[26]; most low to medium- polarity organic solvents,poor
same,Solubility,"[26]; organic solvent or mixture, dimethylsulfoxide (DMSO), read-out: Solubility",> 50000 µg/mL
same,Solubility,"[26]; organic solvent or mixture, in alcohols, read-out: Solubility",5000 to 10000 µg/mL
same,Solubility,[26]; water from acidic to neutral pH,poor
same,MIC,"[19]; L145 C. albicans, RPMI 1640 medium, 10^4 CFU/ml, 35°C, 18-24 hours, read-out: MIC",256 µg/mL
same,MIC,"[2]; L49 S. pyogenes C203, Todd Hewitt medium, 35°C, 18-24 hours, read-out: MIC",16 µg/mL
same,MIC,"[4]; L1577 S. epidermidis, cation-adjusted Mueller Hinton Broth, 35°C, 18-24 hours, read-out: MIC",0.06 µg/mL
same,MIC,"[5]; L1400 S. aureus HA-MRSA, cation-adjusted Mueller Hinton Broth, 35°C, 18-24 hours, read-out: MIC",0.03 µg/mL
same,MIC,"[6]; L4061 S. aureus MRSA - GISA, cation-adjusted Mueller Hinton Broth, 35°C, 18-24 hours, read-out: MIC",0.06 µg/mL
same,MIC,"[7]; L47 E. coli, cation-adjusted Mueller Hinton Broth, 35°C, 18-24 hours, read-out: MIC",> 256 µg/mL
same,MIC,"[8]; Staphylococcus haemolyticus, L1730 S. haemolyticus, cation-adjusted Mueller Hinton Broth, 35°C, 18-24 hours, read-out: MIC",0.03 µg/mL
same,MIC,"[9]; L44 S. pneumoniae, Todd Hewitt medium, 35°C, 18-24 hours, read-out: MIC",16 µg/mL
same,MIC,"[10]; L568 E. faecium, cation-adjusted Mueller Hinton Broth, 35°C, 18-24 hours, read-out: MIC",2 µg/mL
same,MIC,"[11]; VA8101 S. agalactiae (Group B), Todd Hewitt medium, 35°C, 18-24 hours, read-out: MIC",8 µg/mL
same,MIC,"[12]; L1729 S. haemolyticus MDR, cation-adjusted Mueller Hinton Broth, 35°C, 18-24 hours, read-out: MIC",0.016 µg/mL
same,MIC,"[13]; L819 S. aureus Smith, cation-adjusted Mueller Hinton Broth, 35°C, 18-24 hours, read-out: MIC",0.06 µg/mL
same,MIC,"[14]; VA80201 S. aureus CA-MRSA, cation-adjusted Mueller Hinton Broth, 35°C, 18-24 hours, read-out: MIC",0.015 µg/mL
same,MIC,"[15]; Enterococcus faecium, L569 E. faecium VanA, cation-adjusted Mueller Hinton Broth, 35°C, 18-24 hours, read-out: MIC",2 µg/mL
same,MIC,"[16]; L560 E. faecalis VanA, cation-adjusted Mueller Hinton Broth, 35°C, 18-24 hours, read-out: MIC",0.03 µg/mL
same,MIC,"[17]; L559 E. faecalis, cation-adjusted Mueller Hinton Broth, 35°C, 18-24 hours, read-out: MIC",0.03 µg/mL
same,MIC,"[18]; L100 S. aureus ATCC6538P, cation-adjusted Mueller Hinton Broth, 35°C, 18-24 hours, read-out: MIC",0.03 µg/mL
same,toxicity against human cells,"[27]; Hela cells, the highest concentration tested",no toxicity
same,inhibit replication of HeLa cell,[27],does not inhibit
same,ED50,[28],15 mg/kg
same,stable up to pH,[29],8-9
"COc1c(OC)c2c(=O)c3cc(C)n(C(CC4CN(C)C(=N)N4)C(=O)O)c(=O)c3c(=O)c2c2cc3c(=O)c4cc(O)cc(O)c4c(=O)c3c(O)c12 (stereo not drawn) [compound 2, 2-(8,10,12-Trihydroxy-6,7-dimethoxy-3-methyl-1,5,9,14,16-pentaoxo-5,9,14,16-tetrahydro-1H-2-aza-hexaphen-2-yl)-3-(2-imino-1-methyl-imidazolidin-4-yl)-propionic acid]",MIC,[19],> 512 µg/mL
same,MIC,[2],1 µg/mL
same,MIC,[3],64 µg/mL
same,MIC,[4],0.03 µg/mL
same,MIC,[5]; MRSA,0.03 µg/mL
same,MIC,[7],> 512 µg/mL
same,MIC,[8]; Staphylococcus haemolyticus,0.03 µg/mL
same,MIC,[9],32 µg/mL
same,MIC,[10],0.125 µg/mL
same,MIC,[12],0.06 µg/mL
same,MIC,[13],0.015 µg/mL
same,MIC,[15]; Enterococcus faecium,0.5 µg/mL
same,MIC,[16],0.03 µg/mL
same,MIC,[17],0.03 µg/mL
same,MIC,[18]; ATCC6538P,0.03 µg/mL
